Read-outs that look alike come from different tables or passages of the source.
Columns and labels:
[1] = tested on: substance P in human plasma
Procedure: (§1) To 50 μL portions of human plasma prepared in the same manner as in Example 1 was added a 400 mg/mL aqueous solution of glucose (special grade; Kanto Chemical Co., Inc.) prepared with purified water (100 μL), followed by mixing. […] The concentrations of substance P in the thawed portions of sample N were measured in the same manner as in Example 1 to calculate the residual rates, which are the index for the stability of substance P in plasma.
(§2) To 50 μL portions of human plasma prepared in the same manner as in Example 1 was added a 200 pg/mL aqueous solution of substance P (50 μL) to prepare six portions of sample.
(§3) After the preparation, the samples were frozen at −80° C. and then thawed at room temperature 0 day, 3 days and 13 days after the freezing. The concentrations of substance P in the thawed samples were measured in the same manner as in Example 1 using Substance P EIA Kit (Cayman) to calculate the residual rates, which are the index for the stability of substance P in plasma.

[2] = tested on: neutral endopeptidase (NEP); assay: Effect of addition of a saccharide on degradation of substance P by neutral endopeptidase (NEP); type: biochemical; conditions: for Degradation of substance P by NEP: result in words
Procedure: Similarly, samples each comprising 150 μL of human plasma, 150 μL of a 200 pg/mL aqueous solution of substance P, 300 μL of a 400 mg/mL aqueous solution of glucose and 50 μL of an enzyme solution (respective NEP concentrations; 0 U/mL, 0.1 U/mL, 1.0 U/mL and 10.0 U/mL) were prepared.
Further, samples each comprising 150 μL of human plasma, 150 μL of a 200 pg/mL aqueous solution of substance P, 300 μL of a 10 mmol/L aqueous solution of phosphoramidon and 50 μL of an enzyme solution (respective NEP concentrations; 0 U/mL, 0.1 U/mL, 1.0 U/mL and 10.0 U/mL) were prepared.

[3] = tested on: substance P in human plasma; assay: Stabilization of substance P in plasma by addition of a saccharide when frozen at −80° C.; conditions: Example 6: same additive solutions
Procedure: as §1, §2, §3

[4] = tested on: substance P in human plasma; conditions: 4° C. 18 hours
Procedure: To 50 μL portions of the human plasma were respectively added a 200 mg/mL aqueous solution of xylose, a 200 mg/mL aqueous solution of glucose, a 200 mg/mL aqueous solution of mannose and a 200 mg/mL aqueous solution of galactose (100 μL each), followed by mixing.
Measurement of substance P in samples A to D and the control sample was carried out in duplicate in the following manner, using Substance P EIA Kit (Cayman) according to the manual attached to the kit.
The above kit is a kit for enzyme immunoassay by the competitive method using, as a competitive substance, substance P bound to acetylcholine esterase (substance P AchE tracer). The measurement with this kit is carried out by allowing substance P in a sample and the competitive substance to competitively react with anti-substance P antibody on a solid phase and reacting acetylcholine esterase in the competitive substance bound to the anti-substance P antibody on a solid phase with Ellman's reagent to develop color, followed by the measurement of the absorbance. Then, the concentration of substance P in the sample can be determined based on a previously prepared calibration curve. […]

[5] = Stability of substance P in aqueous solution without plasma (Substance P EIA Kit); type: physicochemical; conditions: for Concentration of substance P measured in the substance P solution: 200 pg/mL aqueous solution
Procedure: When the 200 pg/mL aqueous solution of substance P was, without being mixed with the human plasma, subjected to measurement of substance P under the present measurement conditions including incubation at 4° C. for 18 hours, the obtained value was 226.16 pg/mL. […] On the other hand, as shown in the experiment on the control sample, when the sample having the initial substance P concentration of 116.93 pg/mL was subjected to measurement under the present measurement conditions including incubation at 4° C. for 18 hours, the obtained average substance P concentration was 60.57 pg/mL.
The concentrations of substance P in the human plasma used for the preparation of the samples subjected to the incubation for 16 hours, 24 hours and 48 hours were determined to be 15.02 pg/mL, 4.95 pg/mL and 5.71 pg/mL, respectively. The concentrations of substance P in the substance P solution used for the preparation of the samples subjected to the incubation for 16 hours, 24 hours and 48 hours were determined to be 211.1 pg/mL, 208.4 pg/mL and 197.8 pg/mL, respectively. From these measurement values, the theoretical values of the concentrations of substance P in the samples were calculated in the same manner as in Example 1, and the residual rates were calculated from the theoretical values and the measurement values.

O=C([O-])CN(CCN(CC(=O)[O-])CC(=O)O)CC(=O)O.[Na+].[Na+] [EDTA•2Na, ethylenediaminetetraacetic acid.disodium]
Residual rate, Day 3 [1]: 26.4%
Residual rate, Day 13 [1]: 32.6%

CC(C)C[C@H](NP(=O)(O)O[C@@H]1O[C@@H](C)[C@H](O)[C@@H](O)[C@H]1O)C(=O)N[C@@H](Cc1c[nH]c2ccccc12)C(=O)O [Phosphoramidon, phosphoramidon]
Degradation of substance P by NEP [2]: inhibited
Residual rate, Day 3 ([1]; human, 3 days): 29.0%
Residual rate, Day 13 ([1]; human, 13 days): 25.6%

magnesium gluconate
Residual rate, Day 3 ([3]; thawed 3 days after the freezing): 42.6%
Residual rate, Day 13 ([3]; thawed 13 days after the freezing): 40.1%

substance P
Residual rate of substance P, NEP concentration 0 U/mL ([2]; human plasma + substance P ± 400 mg/mL glucose or 10 mmol/L phosphoramidon solution, enzyme solution NEP 0 U/mL): 100.0%
Residual rate of substance P, NEP concentration 0.1 U/mL ([2]; human plasma + substance P ± 400 mg/mL glucose or 10 mmol/L phosphoramidon solution, enzyme solution NEP 0.1 U/mL): 102.2%
Residual rate of substance P, NEP concentration 1.0 U/mL ([2]; human plasma + substance P ± 400 mg/mL glucose or 10 mmol/L phosphoramidon solution, enzyme solution NEP 1.0 U/mL): 93.3%
Residual rate of substance P, NEP concentration 10.0 U/mL ([2]; human plasma + substance P ± 400 mg/mL glucose or 10 mmol/L phosphoramidon solution, enzyme solution NEP 10.0 U/mL): 84.0%
Degradation of substance P by NEP [2]: degraded by NEP
Average substance P concentration in plasma without saccharide ([4]; control sample, initial substance P concentration 116.93 pg/mL): 60.57 pg/mL
Stability of substance P in the presence of plasma ([4]; no saccharide, result in words): unstable
Concentration of substance P measured in the substance P solution ([5]; incubation 16 hours at 4° C.): 211.1 pg/mL
Concentration of substance P measured in the substance P solution ([5]; incubation 24 hours at 4° C.): 208.4 pg/mL
Concentration of substance P measured in the substance P solution ([5]; incubation 48 hours at 4° C.): 197.8 pg/mL
Stability of substance P in the aqueous solution ([5]; 4° C. 18 hours, result in words): stable
Concentration of substance P measured in the 200 pg/mL aqueous solution of substance P ([5]; without human plasma, incubation at 4° C. for 18 hours): 226.16 pg/mL
